Some test systems named below: KM12 colon; OVCAR-8 ovarian; UACC-257 melanoma; MCF7 breast; OVCAR-4 ovarian; 786-0 renal; EKVX NSCLC; NCI-H522 lung; TK-10 renal; HOP-92 NSCLC.
Holding throughout (assay): inhibition of tumour cell growth, NCI panel, 48 h

Each structure is given as a SMILES string.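 Where inhibition never reached the appropriate level, the endpoint shown equals the highest concentration tested. Otherwise, values were interpolated linearly from a five-concentration, 48-hour dose response in 96-well plates. GI50: concentration for 50% inhibition of growth. TGI: concentration producing complete growth inhibition.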

Consider `CCOC(=O)N(Cc1cccs1)c1cc(OC)c(OC)c(OC)c1`, for which the TGI in the assay on KM12 colon, with OVCAR-8 ovarian, in the assay with UACC-257 melanoma, in the assay on MCF7 breast, in the assay on OVCAR-4 ovarian and in the assay on 786-0 renal was above 100 µM in each case. The TGI in the assay on EKVX NSCLC, in the assay with NCI-H522 lung and in the assay with TK-10 renal was above 100 µM each time.
Consider `CCCNC(=O)c1cc(NC(=O)c2cc(NC(=O)/C=C/c3ccccc3)c(OC)c(OC)c2)c(OC)c(OC)c1`, for which the TGI with KM12 colon came out at 41.8 µM; in the assay with OVCAR-8 ovarian it was 17 µM; with UACC-257 melanoma it was 52.2 µM; with MCF7 breast, 28.5 µM; in the assay with OVCAR-4 ovarian, 8.05 µM; in the assay with 786-0 renal, 18.6 µM. For the same compound, the values for the TGI in the assay with EKVX NSCLC, in the assay on NCI-H522 lung and in the assay on TK-10 renal were 54.1 µM, 23.1 µM and 40.1 µM, respectively.
On to `CCN(CC)CC(C)Nc1ccc([N+](=O)[O-])c2sc3ccccc3c(=O)c12` (stereo unspecified), for which the GI50 in the assay on KM12 colon was 2.14 µM; with OVCAR-8 ovarian it was 2.58 µM; in the assay on UACC-257 melanoma, 1.68 µM; with HOP-92 NSCLC it was 1.39 µM; in the assay with MCF7 breast, 0.452 µM; in the assay on OVCAR-4 ovarian, 3.48 µM. Moreover, the GI50 in the assay with EKVX NSCLC was 2.79 µM; in the assay on NCI-H522 lung, 1.45 µM; with TK-10 renal it was 1.91 µM. Moreover, the TGI in the assay on KM12 colon was 13.5 µM; in the assay on OVCAR-8 ovarian, above 100 µM; in the assay with UACC-257 melanoma it was 4.15 µM; with MCF7 breast, 2.36 µM; in the assay with OVCAR-4 ovarian it was above 100 µM; in the assay with EKVX NSCLC, 23.4 µM. Also, the TGI in the assay with NCI-H522 lung was 3.91 µM; in the assay with TK-10 renal, 54.2 µM.
With `N=c1c2c(C(N)=O)cn(C3OC(CO)C(O)C3O)c2ncn1O` (stereo unspecified), the TGI in the assay on KM12 colon was 0.753 µM; with OVCAR-8 ovarian it was 0.607 µM; with UACC-257 melanoma, 0.901 µM; in the assay with HOP-92 NSCLC, above 100 µM; in the assay with OVCAR-4 ovarian it was 6.81 µM; in the assay on 786-0 renal it was 1.08 µM. Also, the TGI in the assay with EKVX NSCLC was 6.67 µM; with NCI-H522 lung it was above 20.4 µM; in the assay with TK-10 renal, 0.426 µM.
As for `CCOC(=O)CSc1nc(N)c2c(-c3ccc(OC)c(OC)c3)c3c(nc2n1)CCCC3`, the TGI with KM12 colon was above 100 µM; in the assay on OVCAR-8 ovarian it was 87.4 µM; in the assay with UACC-257 melanoma, above 100 µM; in the assay on MCF7 breast, above 100 µM; with OVCAR-4 ovarian, above 100 µM; in the assay with EKVX NSCLC it was above 100 µM. Further, the TGI in the assay with TK-10 renal was above 100 µM.
For the compound `CCOC(=O)C1(C(=O)OCC)Nc2cccnc2N(C)N1`, the TGI in the assay with KM12 colon is above 100 µM; in the assay on OVCAR-8 ovarian, 40 µM; in the assay with UACC-257 melanoma, 32.3 µM; in the assay on HOP-92 NSCLC, 29.7 µM; in the assay on MCF7 breast it was 34.8 µM; in the assay on OVCAR-4 ovarian, 34.3 µM. Further, the figures for the TGI in the assay with 786-0 renal and in the assay with TK-10 renal were 36 µM and 40.1 µM, respectively.
As for `CCS(=O)(=O)Nc1ccc(Nc2c3ccccc3nc3ccccc23)c(OC)c1`, the TGI in the assay with KM12 colon worked out at 6.72 µM; in the assay with OVCAR-8 ovarian, 7.71 µM; in the assay on UACC-257 melanoma it was 16.9 µM; in the assay on HOP-92 NSCLC it was 5.35 µM; in the assay with MCF7 breast, 6.15 µM; with OVCAR-4 ovarian, 16.1 µM. The TGI in the assay with NCI-H522 lung came to 16.1 µM.
Take `N=C(N)c1ccc(-c2ccc(-c3cc(Cl)cc(Cl)c3)o2)nc1`: the GI50 in the assay with KM12 colon is 1.85 µM; in the assay on OVCAR-8 ovarian, 1.88 µM; in the assay on UACC-257 melanoma it was 1.84 µM; in the assay with HOP-92 NSCLC it was 1.56 µM; with MCF7 breast, 1.73 µM; in the assay on NCI-H522 lung, 1.98 µM. Further, the GI50 in the assay with TK-10 renal was 1.87 µM. For the same compound, the TGI in the assay with KM12 colon was 3.44 µM; in the assay with OVCAR-8 ovarian, 3.83 µM; in the assay with UACC-257 melanoma it was 3.59 µM; with HOP-92 NSCLC, 3.14 µM; in the assay on MCF7 breast, 3.6 µM; in the assay with NCI-H522 lung it was 3.86 µM. The same compound showed a TGI in the assay with TK-10 renal of 3.5 µM.
Turning to `COc1cc(/C=C/C(=O)c2ccc(NS(=O)(=O)c3cc([N+](=O)[O-])ccc3C)cc2)cc(OC)c1OC`, the TGI was 8.02 µM with KM12 colon; 7.97 µM in the assay with OVCAR-8 ovarian; 21.9 µM with UACC-257 melanoma; 11.5 µM in the assay with HOP-92 NSCLC; 9.72 µM in the assay with MCF7 breast; 13.5 µM in the assay with OVCAR-4 ovarian. Moreover, the TGI in the assay with 786-0 renal stood at 7.14 µM; in the assay with EKVX NSCLC it was 17 µM; with TK-10 renal it was 13.9 µM.
`COc1cccc(N=Cc2cc3cc(Br)ccc3nc2Cl)c1`: the TGI with KM12 colon was above 50 µM; in the assay with OVCAR-8 ovarian, above 50 µM; in the assay with UACC-257 melanoma it was above 50 µM; with HOP-92 NSCLC, above 50 µM; in the assay with OVCAR-4 ovarian it was 2.63 µM; with 786-0 renal, 11.3 µM. The TGI in the assay on EKVX NSCLC and in the assay on NCI-H522 lung was above 50 µM each time.
As for `CCOC(=O)c1nc2ccc(Cl)cc2c2c1Cc1ccccc1-2`, the TGI in the assay with KM12 colon, in the assay on OVCAR-8 ovarian, with UACC-257 melanoma, in the assay with OVCAR-4 ovarian, in the assay on 786-0 renal and with EKVX NSCLC was above 100 µM in each case. The TGI in the assay with NCI-H522 lung and with TK-10 renal was above 100 µM each time.
`COc1cc(C2C(C(=O)O)=C(CO)Oc3cc4c(cc32)OCO4)cc(OC)c1O` (stereo unspecified): the TGI in the assay on OVCAR-8 ovarian, with UACC-257 melanoma, in the assay with HOP-92 NSCLC, with OVCAR-4 ovarian, in the assay on EKVX NSCLC and with TK-10 renal was above 100 µM each time.
For the compound `COc1ccc(/C=C2\C(=O)N(C3OC(COC(C)=O)C(OC(C)=O)C(OC(C)=O)C3OC(C)=O)c3ccccc3N=C2N)cc1` (stereo unspecified), the TGI in the assay on KM12 colon is above 100 µM; in the assay with OVCAR-8 ovarian, 45.6 µM; with UACC-257 melanoma, 72.5 µM; in the assay on HOP-92 NSCLC, above 100 µM; with MCF7 breast it was above 100 µM; with OVCAR-4 ovarian it was above 100 µM. Besides, the TGI with 786-0 renal is 37.5 µM; with EKVX NSCLC it was above 100 µM; in the assay on TK-10 renal, 99.2 µM.
For `O=C(CCCCCCC(=O)Nc1ccc(N(CCCl)CCCl)cc1)NO`, the GI50 in the assay on KM12 colon is 6.58 µM; in the assay with OVCAR-8 ovarian it was 1.79 µM; with UACC-257 melanoma, 2.27 µM; in the assay with HOP-92 NSCLC, 1.19 µM; in the assay with MCF7 breast, 1.48 µM; in the assay with OVCAR-4 ovarian, 3.37 µM. The GI50 was 11.5 µM with EKVX NSCLC and 0.474 µM in the assay with NCI-H522 lung. For the same compound, the TGI in the assay with KM12 colon was determined as 21.7 µM; with OVCAR-8 ovarian, 21 µM; in the assay on UACC-257 melanoma, 14.1 µM; in the assay with HOP-92 NSCLC, 5.47 µM; in the assay on MCF7 breast it was 24.3 µM; in the assay on OVCAR-4 ovarian, 32.4 µM. The figures for the TGI with EKVX NSCLC and in the assay with NCI-H522 lung were 37.9 µM and 2.03 µM, respectively.
Regarding `CN(C)CC(=O)Nc1ccc(Cn2nnc3c2C(=O)c2nnn(Cc4ccc(NC(=O)CN(C)C)cc4)c2C3=O)cc1`, the GI50 is 0.228 µM in the assay on OVCAR-8 ovarian, 0.172 µM with UACC-257 melanoma, 0.0473 µM in the assay with OVCAR-4 ovarian and 2.86 µM with TK-10 renal. Also, the TGI was determined as 0.679 µM with OVCAR-8 ovarian, 0.339 µM in the assay on UACC-257 melanoma, 0.179 µM in the assay with OVCAR-4 ovarian and 7.58 µM in the assay with TK-10 renal.
With `ONc1ncnc2nc[nH]c12`, the TGI in the assay with KM12 colon, in the assay with OVCAR-8 ovarian, in the assay with UACC-257 melanoma, in the assay on HOP-92 NSCLC, with OVCAR-4 ovarian and in the assay with 786-0 renal was above 100 µM each time. Moreover, the TGI in the assay with NCI-H522 lung and in the assay on TK-10 renal was above 100 µM throughout.
On to `CCCc1[nH]c(SCCCCCCCCSc2nc(-c3ccc(F)cc3)c(CCC)[nH]2)nc1-c1ccc(F)cc1`, for which the TGI in the assay on KM12 colon is above 100 µM; in the assay with OVCAR-8 ovarian, above 100 µM; in the assay on UACC-257 melanoma, above 100 µM; with HOP-92 NSCLC, 29.6 µM; in the assay on OVCAR-4 ovarian it was 95.4 µM; in the assay on EKVX NSCLC, 52.5 µM. Also, in the assay with TK-10 renal, the TGI is above 100 µM.
Turning to `Cn1c(=O)c2c(nc(-n3nc(-c4ccc(Cl)cc4)cc3N)n2C)n(C)c1=O`, the TGI in the assay with KM12 colon, in the assay on OVCAR-8 ovarian, in the assay with UACC-257 melanoma, with HOP-92 NSCLC, in the assay on MCF7 breast and in the assay with OVCAR-4 ovarian was above 100 µM each time. Also, the TGI with 786-0 renal, in the assay on EKVX NSCLC and in the assay on TK-10 renal was above 100 µM throughout.
In the case of `CC1CNc2ccccc2N=C1NN` (stereo unspecified), the TGI in the assay with KM12 colon, with OVCAR-8 ovarian, with UACC-257 melanoma, in the assay on MCF7 breast, with OVCAR-4 ovarian and in the assay on 786-0 renal was above 100 µM each time. Besides, the TGI with EKVX NSCLC, in the assay on NCI-H522 lung and with TK-10 renal was above 100 µM throughout.
For the compound `Cc1cccc2nc3c(C(=O)NCCN(C)C)cccc3cc12`, the TGI in the assay on KM12 colon worked out at 9.47 µM; in the assay on OVCAR-8 ovarian, 6.58 µM; with UACC-257 melanoma it was 3.44 µM; in the assay with HOP-92 NSCLC it was 3.99 µM; in the assay with MCF7 breast, 9.44 µM; in the assay on OVCAR-4 ovarian, 7.46 µM. The TGI in the assay on EKVX NSCLC was determined as 7.06 µM.
Consider `CNC(=O)OC(C)CN1c2ccccc2Sc2ccc(Cl)cc21` (stereo unspecified), for which the TGI in the assay on OVCAR-8 ovarian, in the assay with MCF7 breast, with OVCAR-4 ovarian, in the assay with EKVX NSCLC, with NCI-H522 lung and in the assay with TK-10 renal was above 10 µM each time.
With `O=C(N/N=C(/c1ccccc1)C(F)(F)F)c1ccncc1`, the TGI with KM12 colon, with OVCAR-8 ovarian, in the assay with HOP-92 NSCLC, with MCF7 breast, in the assay on NCI-H522 lung and with TK-10 renal was above 100 µM in each case.

The values are drawn from PubChem BioAssay (NCI).
